Results on six molecules are retold here after patent publication US9877962B2, “Piperazinyl derivatives for the treatment of cancer” (priority 2011, dated 2018).

Structures are written as SMILES. Converted amounts (≈) assume the structure as drawn.

Series [1] in a line: Determination of aqueous solubility. Type of series: physicochemical. The conditions noted are these: aqueous medium, aqueous buffer, thermodynamic from solid, pH 7.4, agitation 24 h, 20° C., HPLC. The protocol: The aqueous solubility of each compound was measured at pH 7.4. It was measured using HPLC on the supernatants obtained by centrifugation after saturation of the media with excess compound after an agitation time of 24 h and at a temperature of 20° C. The preparation and treatment of the samples was robotized.

In series [2] the test system is 3 human cancer cell lines established from Head & Neck (HNSCC). Description: MTT cell proliferation assay on HNSCC cell lines. It counts as cell-based. The following applies: MTT assay after 72 hours of treatment, FIG. 2. As for the experimental part: (§1) Compound I-43b has been tested in 3 human cancer cell lines established from Head & Neck (HNSCC) and in 4 human cancer cell lines established hepatocarcinoma (HCC). […] Cell proliferation has been evaluated using the MTT assay after 72 hours of treatment.
Background: Formazan colour is commonly taken as a measure of viable cells.

The next series relates to NCI 60 cell lines. Description: NCI 60 tumor cell line panel (SRB). Type of series: cell-based, human. The following applies: concentration of 10 μM, 48 h, FIG. 3. The protocol:
Compound I-43b has been tested in the NCI 60 cell line panel. This screen utilizes 60 different human tumor cell lines, representing leukemia, melanoma, lung cancer, colon cancer, CNS cancer, ovarian cancer, breast cancer, prostate cancer and renal cancer.
The 60 human tumor cell lines of the cancer screening panel are grown in RPMI 1640 medium containing 5% fetal bovine serum and 2 mM L-glutamine. For a typical screening experiment, cells are inoculated into 96 well microtiter plates in 100 μL at plating densities ranging from 5,000 to 40,000 cells/well depending on the doubling time of individual cell lines. […]
Following drug addition, the plates are incubated for an additional 48 h at 37° C., 5% CO2, 95% air, and 100% relative humidity. […] Bound stain is subsequently solubilized with 10 mM trizma base, and the absorbance is read on an automated plate reader at a wavelength of 515 nm. […] Using the seven absorbance measurements [time zero (Tz), control growth (C), and test growth in the presence of drug at the five concentration levels (Ti)], the percentage growth is calculated at each of the drug concentrations levels. Percentage growth inhibition is calculated as: [(Ti−Tz)/(C−Tz)]×100 for concentrations for which Ti>/=Tz [(Ti−Tz)/Tz]×100 for concentrations for which Ti<Tz.
Three dose response parameters are calculated for each experimental agent. […]

Series [3] deals with 4 human cancer cell lines established hepatocarcinoma (HCC). Briefly: MTT cell proliferation assay on HCC cell lines. It counts as cell-based. The conditions noted are these: MTT assay after 72 hours of treatment, FIG. 2. The protocol: as §1
The next series concerns MCF-7/adr. Description: Cytotoxicity test (ViaLight Plus cell proliferation) on MCF-7/adr. It counts as cell-based, human. The following applies: Homo sapiens, NCI/ADR-RES, 72 h, adriamycin-resistant line, 72 hours' incubation, cell viability vs 0.5% DMSO control; read-out: EC50 MCF-7/adr.
In the next series the test system is MCF-7. Description: Cytotoxicity test (ViaLight Plus cell proliferation) on MCF-7. Type of series: cell-based, human. The conditions noted are these: Homo sapiens, MCF7, 72 h, 72 hours' incubation, cell viability vs 0.5% DMSO control; read-out: EC50 MCF-7. An excerpt:
The effects of the compounds of the invention on the proliferation of cancer cells were studied on different human cancer cell lines of different tissue origin (MCF-7: breast cancer, MCF-7/adr adriamycin-resistant breast cancer, HL-60: acute promyelocytic leukaemia, HL-60/R10: doxorubicin-resistant acute promyelocytic leukaemia, HT29: colon adenocarcinoma, Mia Paca2: pancreatic tumour, Panc-1: pancreatic exocrine tumour, SK-OV-3: cisplatin- and adriamycin resistant ovarian cancer). The cancer cells used for this study were incubated at 37° C. in the presence of one of the compounds of the invention added to the culture medium at different concentrations.
The cancer cell lines were obtained from ATCC (American Type Culture Collection) for MCF-7, from Hôpital de la Pitié Salpetrière for MCF-7/adr and from Oncodesign (Dijon, France) for HL-60, HL-60/R10, HT29, MiaPaCa2, Panc-1 and SK-OV-3. They were cultured in RPMI 1640 medium containing 2 mM L-Glutamine supplemented with 10% foetal calf serum (Lonza; Verviers, Belgium). All the cell lines were held in culture at 37° C. in a humid atmosphere containing 5% CO2. Cell proliferation was assessed using the ViaLight® Plus Assay Kit (Lonza; Verviers, Belgium) following the manufacturer's instructions. The cells were seeded in 96-well culture plates compatible with luminescence read-off (white plates with transparent bottom) in a proportion of 5 000 to 10 000 cells per well in 100 μl of culture medium. After a pre-incubation time of 24 hours at 37° C., the compounds of the invention dissolved in dimethylsulfoxide (DMSO) were individually added to each well in a proportion of 0.5 μl per well. After 72 hours' incubation at 37° C. in a humid atmosphere containing 5% CO2, 50 μl of lysis buffer were added to each well and 15 minutes later 100 μl of ATP measuring agent were added. The plates were read under a luminometer to evaluate cell viability. The data obtained was processed by computer to obtain the EC50 value i.e. the concentration value of each of the compounds which induces 50% cell viability compared with a control value (0.5% DMSO alone).

A further series has as its system HL-60. Briefly: Cytotoxicity test (ViaLight Plus cell proliferation) on HL-60. It counts as cell-based, human. The following applies: Homo sapiens, 72 hours' incubation, cell viability vs 0.5% DMSO control; for IC50: HL-60, 72 h, read-out: EC50 HL-60.
A further series concerns HL-60/R10. Description: Cytotoxicity test (ViaLight Plus cell proliferation) on HL-60/R10. It counts as cell-based, human. The following applies: Homo sapiens, doxorubicin-resistant line, 72 hours' incubation, cell viability vs 0.5% DMSO control, read-out: EC50 HL60/R10; for IC50: HL-60, 72 h; for EC50: HL-60.

The solubility is how much of the substance goes into solution per volume. In series [1], `CC(C)[C@H]1CN(C(=O)C(c2cccs2)N(C(=O)CCl)c2ccc(Oc3ccccc3)cc2)CCN1` (some centres unmarked) registered a solubility at 24 h of 50 µg/mL (≈ 97.6 µM).
`Cc1cc(Oc2ccccc2)ccc1N(C(=O)CCl)[C@H](C(=O)N1CCN[C@@H](C)C1)c1cccs1` (single isomer, unassigned) [Example I-43b]: the “cell proliferation inhibition, HNSCC cell lines” value in series [2] is “inhibited cell proliferation in a concentration dependent manner”. Moreover, the “growth inhibition of NCI 60 tumor cell lines, single dose screen” value with NCI 60 cell lines was “selective growth inhibition on all these tumor cell lines”. For the same molecule, the “cell proliferation inhibition, HCC cell lines” value in series [3] is recorded as “inhibited cell proliferation in a concentration dependent manner”.
In the case of `C[C@H]1CN(C(=O)C(c2cccs2)N(C(=O)CCl)c2ccc(Oc3ccccc3)cc2)CCN1.Cl` (some centres unmarked) [Example I-58], the IC50 with MCF-7/adr amounted to 88 nM; in the series with MCF-7, 870 nM; with HL-60 it was 1060 nM; with HL-60/R10, 11 nM. Further, the EC50 in the series on HL-60 (HL-60) worked out at 1060 nM; in the series with HL-60/R10, 11 nM. Further, the solubility at 24 h in series [1] stood at 203 µg/mL.
As to `C[C@@H]1CN(C(=O)C(c2cccs2)N(C(=O)CCl)c2ccc(Oc3ccccc3)cc2)CCN1.Cl` (some centres unmarked) [Example I-59], the IC50 in the series on MCF-7/adr worked out at 106 nM; with MCF-7 it was 745 nM; in the series with HL-60, 956 nM; with HL-60/R10 it was 16 nM. Besides, the EC50 with HL-60/R10 worked out at 16 nM. Also, the solubility at 24 h in series [1] is 152 µg/mL.
Consider `Cl.O=C(C(c1cccs1)N(C(=O)CCl)c1ccc(Oc2ccccc2)cc1)N1CCNCC1` (centres unmarked) [reference compound], for which the values for the IC50 in the series on HL-60 and in the series with HL-60/R10 were 579 nM and 21 nM, respectively. Also, the solubility at 24 h in series [1] amounted to 68 µg/mL.
For `C[C@H]1CNCCN1C(=O)C(c1cccs1)N(C(=O)CCl)c1ccc(Oc2ccccc2)cc1.Cl` (some centres unmarked) [reference compound], the IC50 in the series with HL-60 came out at 662 nM; in the series on HL-60/R10, 65 nM. Further, the solubility at 24 h in series [1] amounted to 105 µg/mL.
